Results on 3 molecules are retold here after patent US20070087378A1, “Polynucleotide and polypeptide fat metabolism regulators and uses thereof” (priority 2002, published 2007).

Entries after “also recorded” stand apart in the source; their conditions may differ.

Series [1] relates to wild-type nematodes. Kind of series: Nile Red fat staining of wild-type nematodes (feeding RNAi screen; compound treatment). The class given is in vivo, C. elegans.
Series [2] concerns daf-2(e1370) mutant nematodes. Further details: species or system C. elegans. The conditions noted are these: in vivo.
Series [3] has as its system tub-1(nr2004) mutant nematodes. Set-up: species or system C. elegans. The note with it: in vivo.
In series [4] the test system is tph-1(mg280) mutant nematodes. Kind of series: Nile Red fat staining of tph-1(mg280) nematodes (RNAi epistasis analysis; compound treatment). The class given is in vivo, C. elegans. The note with it: adult tph-1(mg280) nematodes, 500 μM.
Series [5] concerns nematode progeny. Kind of series: Continuous AICAR treatment: growth and development of nematode progeny. The note with it: relative to untreated control progeny. As to the method: Adult wild-type nematodes, daf-2 (e1370), tph-1(mg280), and tub-1(nr2004) mutant nematodes were treated with 500 μM AICAR, and their fat content was detected using Nile Red as described above. […] To determine whether the effects of AICAR were reversible, AICAR-treated nematodes were then moved to culture plates without AICAR. […] The effect of continuous AICAR treatment was tested by seeding AICAR plates with five hermaphrodites, and then monitoring the effect of AICAR on the growth and development of nematode progeny relative to untreated control progeny.

Series [6] relates to lpo-1 mutant nematodes. Set-up: species or system C. elegans. The note with it: in vivo.
Series [7] relates to C. elegans. Kind of series: Growth rate, brood-size, pharyngeal pumping, dauer formation, dauer recovery and lifespan assays. The conditions noted are these: concentrations between 0.001 μg/ml and 25 μg/ml.

For `NC(=O)c1ncn([C@@H]2O[C@H](CO)[C@@H](O)[C@H]2O)c1N` [AICAR, 5-aminoimidazole-4-carbozamide ribonucleoside], the “time at which reduction in fat content was detectable” value in series [1] (500 μM, wild-type and daf-2, tph-1, tub-1 mutant nematodes) is on record as “twenty-four”. Also, the “fat content relative to untreated control nematodes” value in series [1] (adult wild-type nematodes, 500 μM) is recorded as “progressive reduction in fat content”; in series [2], “progressive reduction in fat content”; in series [3], “progressive reduction in fat content”; in series [4], “progressive reduction in fat content”. Also, in series [1] (treated nematodes moved to culture plates without AICAR), the “reversibility of fat reduction” value is reported as “regained their fat content”. Moreover, the “effect on growth and development of progeny” value in series [5] is recorded as “dramatic retardation of larval growth accompanied by depleted fat stores”.
On to `CC[C@H](C)C(=O)O[C@H]1C[C@@H](C)C=C2C=C[C@H](C)[C@H](CC[C@@H]3C[C@@H](O)CC(=O)O3)[C@H]21` [mevinolin], for which, in series [6], the “fat content / fat accumulation by Nile Red staining” value is “reduced; also recorded: decreased fat accumulation”.
With `CCN(CC)c1ccc2nc3c4ccccc4c(=O)cc-3oc2c1` [Nile Red, 9-diethylamino-5H-benzo[α]phenoxazine-5-one], the “adverse effects on growth rate, brood-size, pharyngeal pumping, dauer formation, dauer recovery, or lifespan” value in series [7] was “No adverse effects”.
